Data on 1 compound can be found in patent US10201587B2, “Methods of inhibiting and treating biofilms using glycopeptide antibiotics” (MELINTA THERAPEUTICS, INC., priority 2008, dated 2019).

Converted amounts (≈) assume the structure as drawn. Like-named read-outs stand apart in the source and are kept apart here.

For series [1], the system named is S. aureus ATCC 29213. As to the kind of experiment: Short duration (2 h) time-kill in membrane assay buffer. The class given is cell-based. How it is done:
Short duration (2 h) time-kill studies were performed in membrane assay buffer (see below) to characterize the killing of S. aureus ATCC 29213 under conditions used in the membrane depolarization and permeability assays. Exponential- and stationary-phase S. aureus ATCC 29213 cells were diluted to an OD600=0.005 (approx 10^6 CFU/mL) in membrane assay buffer (10 mM HEPES-C1, pH 7.5, 50 μg/mL CaCl2) with or without 5 mM glucose, respectively. Experiments were initiated by the addition of antimicrobial agents at the indicated concentrations and bacteria were enumerated by serial-dilution plating.

In series [2] the test system is S. epidermidis ATCC 35984. Put plainly: MBEC plate biofilm eradication, agents in combination. The class given is cell-based. From the text: The following strains were used for in vitro biofilm studies: vancomycin (VAN)-susceptible Enterococcus faecalis ATCC 29212 (VSE), VAN-resistant E. faecalis ATCC 51299 (VanB VRE), E. faecium ATCC 51559 (VanA VRE), S. epidermidis ATCC 12228 and the slime-producing strain S. epidermidis ATCC 35984. Biofilms were established in MBEC™ Physiology & Genetics Assay plates (Innovotech; Edmonton, Canada).

The subject of series [3] is MSSA ATCC 29213. Put plainly: Time-kill in nutrient-depleted CAMHB. Format: cell-based, S. aureus. The settings on record: stationary-phase, estimated free-trough concentration 0.5 μg/mL, 24 hours. How it is done:
(§1) Nutrient-depleted CAMHB from each respective strain was prepared by 3 rounds of inoculation of CAMHB with exponential-phase bacteria, incubation overnight at 37° C. with rotation (225 rpm) and centrifugation (8000×g for 30 minutes) to remove bacteria. After the final round of inoculation, growth and centrifugation, the pH of the nutrient-depleted CAMHB was adjusted to pH=7.0 and the spent medium was filter-sterilized using a […] membrane (Corning Incorporated, Corning, N.Y.).
(§2) Nutrient-depleted CAMHB containing diluted antimicrobial agents was inoculated with stationary-phase bacteria from overnight cultures of the S. aureus strains at approximately 10^7 colony-forming units (CFU)/mL. Other experiments compared the killing of stationary- and exponential-phase S. aureus ATCC 29213 when inoculated into nutrient-depleted CAMHB containing the test agents. For assays involving daptomycin, nutrient-depleted CAMHB was supplemented with 50 μg/ml CaCl2 (8). All time-kill studies were performed in 96-well deep-well plates at 37° C. with rotation (225 rpm) in a total volume of 750 μL. Bacteria were enumerated by serial-dilution plating. Bacteriostatic and bactericidal activity of the antimicrobial agents were defined as a reduction in viable cell counts of <3 or ≥3 log at 24 hours relative to the starting inoculum, respectively (33). Experiments were repeated at least three times and produced similar results; results from one experiment are presented.

The subject of series [4] is MRSA ATCC 33591. Put plainly: Time-kill in nutrient-depleted CAMHB. The settings on record: stationary-phase, free-trough concentration 0.5 μg/mL, 24 hours. The class given is cell-based, S. aureus. How it is done: as §1, §2
Series [5] deals with VRSA VRS5. As to the kind of experiment: Time-kill in nutrient-depleted CAMHB. The class given is cell-based, S. aureus. The method, then: as §1, §2
The subject of series [6] is MSSA ATCC 29213. Put plainly: MBEC system in vitro biofilm (MIC and MBEC). The conditions noted are these: for MIC: Staphylococcus aureus. The class given is cell-based, S. aureus. The method, then:
(§3) The commercially-available MBEC™ system (Innovotech; Edmonton, AB, Canada) was used following the manufacturer's protocol (17) to establish in vitro biofilms of S. aureus and to determine the minimal biofilm eradication concentration (MBEC) of oritavancin and comparator antimicrobial agents. The MBEC represents the concentration of antimicrobial agent required to sterilize the biofilm after 24 hours of exposure. The MBEC™ system also allows for the determination of the minimal inhibitory concentration (MIC) of the test agent against planktonic cells under the conditions of the biofilm assay.
(§4) 150 μL of bacterial inocula at 10^7 CFU/mL in tryptic soy broth was aliquoted into each well of an MBEC plate. Biofilms were established for 24 hours in a rotary incubator at 37° C. and 150 rpm. For experiments involving 72-hour biofilms, peg lids were transferred each day to 96-well plates containing 150 μL/well of fresh tryptic soy broth and incubated another 24 hours. Peg lids with established biofilms were washed once in sterile saline (200 μL/well) and then placed in plates containing antimicrobial agents diluted in CAMHB (200 μL/well). Antimicrobial agents were serially diluted in CAMHB in 96-well plates and peg lids were exposed for 24 hours or for the indicated times. Following antimicrobial challenge, peg lids were washed once in sterile saline then placed in recovery plates containing CAMHB (200 μL/well). The recovery plates were sonicated for 5 minutes in an ultrasonic sonicating bath (VWR Aquasonic model 550D) at the maximum setting then incubated for 24 hours and the MBECs recorded. MBECs were determined from at least three independent experiments; results represent the ranges of MBECs obtained. To enumerate the biofilm colony forming units (CFUs) on individual control pegs, pegs were broken off the lid using sterile forceps placed in 1 ml sterile saline, sonicated for 5 min and vortexed for 1 min at the highest setting. Bacteria were then enumerated by serial-dilution plating.
(§5) To prevent loss of oritavancin due to binding to vessel surfaces (3), the CLSI now recommends inclusion of 0.002% polysorbate-80 for oritavancin broth microdilution MIC determinations (9).

Series [7] has as its system MRSA ATCC 33591. As to the kind of experiment: MBEC system in vitro biofilm (MIC and MBEC). The class given is cell-based, S. aureus. How it is done: as §3, §4, §5
The test system of series [8] is VRSA VRS5. As to the kind of experiment: MBEC system in vitro biofilm (MIC and MBEC). Format: cell-based, S. aureus. How it is done:
as §3, §4, §5

The conditions of series [9]: humans, cited from earlier work.
The mark [10] stands for this setting: 24-hour biofilm, 24 hours of exposure, oritavancin without polysorbate-80.
Setting [11] is: standard dose (oritavancin 200 mg).

For `CN[C@H](CC(C)C)C(=O)N[C@H]1C(=O)N[C@@H](CC(N)=O)C(=O)N[C@H]2C(=O)N[C@H]3C(=O)N[C@H](C(=O)N[C@H](C(=O)O)c4cc(O)cc(O)c4-c4cc3ccc4O)[C@H](O[C@H]3C[C@](C)(N)[C@@H](O)[C@H](C)O3)c3ccc(c(Cl)c3)Oc3cc2cc(c3O[C@@H]2O[C@H](CO)[C@@H](O)[C@H](O)[C@H]2O[C@H]2C[C@](C)(NCc3ccc(-c4ccc(Cl)cc4)cc3)[C@@H](O)[C@H](C)O2)Oc2ccc(cc2Cl)[C@H]1O` [Oritavancin, N-(4-(4-chlorophenyl)benzyl)A82846B], the “reduction in CFU” value was 4 log in series [1] (exponential-phase cells, within 5 minutes, 16 μg/mL) and “approximately 1 log” in series [1] (stationary-phase cells, within the 2-hour time period, oritavancin at fCmax 800, daptomycin at fCmax). The MBEC in combination in series [2] (combination of ORI and MOX required for sterilization) is listed as 4 mg/L; in [2] (combination of ORI and RFB required for sterilization), 4 mg/L. For the same compound, the “reduction in viable cell counts” value in [3] was “approx 2.9 log”; in series [4], “approx 0.4 log”; in series [5] (stationary-phase, free-trough concentration 0.5 μg/mL, 24 hours), “approx 1.2 log”. Besides, the “activity at the 24-hour time point” value in [5] (stationary-phase inoculum, fCmax 800 (16 μg/mL)) is “bactericidal (Bacteriostatic and bactericidal activity of the antimicrobial agents were defined as a reduction in viable cell counts of <3 or ≥3 log at 24 hours relative to the starting inoculum, respectively)”. Also, in [5] (stationary-phase, fCmax, 24 hours), the “decrease in viable cell counts” value is “approx 2.2 log”. Further, the MBEC in series [6] (24-hour biofilm, 1 hour exposure) is 4 µg/mL; in series [6] (setting [10]) it was 2 to 4 µg/mL; in series [6] (72-hour biofilms) it was 8 to 32 µg/mL; in series [7] (setting [10]) it was 0.5 to 4 µg/mL; in series [8] (setting [10]), 2 to 8 µg/mL. For the same compound, the “MBEC relative to respective planktonic MIC” value in series [6] (72-hour biofilms, within each experiment) is “no more than one doubling dilution higher”. Also, the “planktonic MIC relative to CLSI quality control range” value in series [6] (MBEC assay) is on record as “within quality control range”. Also, the MIC is 2 µg/mL (≈ 1.12 µM) in [6] (24 h); 4 to 32 µg/mL (≈ 2.23 to 17.8 µM) in series [6] (72 h, read-out: planktonic MIC); 0.5 to 4 µg/mL (≈ 0.279 to 2.23 µM) in [7] (Staphylococcus aureus, 24 h); 2 to 8 µg/mL (≈ 1.12 to 4.46 µM) in series [8] (Staphylococcus aureus, VRSA, 24 h). Further, the “predicted fCmax 800 in plasma” value in series [9] (single 800 mg dose) is 16 µg/mL. For the same compound, in series [9] (setting [11]), the “estimated fCmax in plasma” value was 4 µg/mL. Moreover, the “estimated free trough concentration in plasma” value in series [9] (setting [11]) is 0.5 µg/mL.
